# Assays:
# c-Src = c-Src (Homo sapiens (Human), UniProt P12931); assay: c-Src enzyme inhibition (FRET, Z-LYTE); format: biochemical
# In short: (§1)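 Syk or c-Src enzyme (3000 or 2000 ng/mL solutions) was preincubated 2 h at RT with compound solutions at 1, 0.1, 0.01 or 0.001 µg/mL. Z-LYTE FRET peptide (8 µM solution) and ATP (800 µM solution for c-Src, 60 µM for Syk) were then added for 1 h, followed by protease development for 1 h. Phosphorylation was read as the coumarin/fluorescein emission ratio.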
# p38 MAPKα (MAPK14) = p38 MAPKα (MAPK14) (Homo sapiens (Human), UniProt Q16539); assay: p38 MAPKα enzyme inhibition (FRET, Z-LYTE; Method 2); format: biochemical
# p38 MAPKα (MAPK14), sequence (Q16539 whole entry): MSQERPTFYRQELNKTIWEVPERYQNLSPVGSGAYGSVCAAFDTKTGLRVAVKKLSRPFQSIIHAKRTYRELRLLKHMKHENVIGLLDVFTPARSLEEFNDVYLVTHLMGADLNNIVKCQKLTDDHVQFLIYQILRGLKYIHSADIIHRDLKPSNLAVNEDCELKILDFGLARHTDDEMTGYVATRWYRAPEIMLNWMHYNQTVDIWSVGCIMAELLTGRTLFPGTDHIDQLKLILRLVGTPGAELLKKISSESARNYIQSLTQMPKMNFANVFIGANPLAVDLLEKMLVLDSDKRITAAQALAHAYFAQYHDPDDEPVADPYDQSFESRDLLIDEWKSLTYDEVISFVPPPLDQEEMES
# GSK 3α = GSK 3α (Homo sapiens (Human), UniProt P49840); assay: GSK 3α enzyme inhibition (FRET, Z-LYTE; Method 2); format: biochemical; settings: read-out: IC50 Values for Enzyme Inhibition GSK3α
# GSK 3α, sequence (P49840 whole entry): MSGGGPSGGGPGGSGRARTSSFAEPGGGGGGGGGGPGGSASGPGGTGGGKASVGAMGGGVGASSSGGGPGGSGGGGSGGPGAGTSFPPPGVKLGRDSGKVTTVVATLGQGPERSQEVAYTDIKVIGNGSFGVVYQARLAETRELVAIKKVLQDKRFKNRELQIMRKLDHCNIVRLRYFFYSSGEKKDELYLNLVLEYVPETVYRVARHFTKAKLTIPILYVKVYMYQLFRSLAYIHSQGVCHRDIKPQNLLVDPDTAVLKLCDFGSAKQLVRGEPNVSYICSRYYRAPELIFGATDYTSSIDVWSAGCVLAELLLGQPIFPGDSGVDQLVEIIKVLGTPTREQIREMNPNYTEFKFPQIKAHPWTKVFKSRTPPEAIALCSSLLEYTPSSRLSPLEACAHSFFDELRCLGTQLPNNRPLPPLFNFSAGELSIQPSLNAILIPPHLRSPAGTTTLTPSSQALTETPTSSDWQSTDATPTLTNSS
# In short: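 Z-LYTE FRET assay: GSK3-α (500 ng/mL stock) preincubated 105 min at RT with compound at 10, 1, 0.1 or 0.01 μg/mL stock. FRET peptide (8 μM stock) and ATP (40 μM stock) were then added for 1 h, followed by protease development for 1 h. Phosphorylation was read as coumarin/fluorescein emission ratio.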
# [1] = tested on: β-catenin in d-U937 cells; assay: Accumulation of β catenin in d-U937 cells (assay m); format: cell-based, human
# In short: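 U937 cells were differentiated with PMA (100 ng/mL) for 48–72 hr, then treated with compound or vehicle for 18 hr. After formaldehyde fixation, β-catenin was detected with a primary antibody and an HRP secondary using TMB (OD450–655). Signal was normalised to crystal violet cell staining (OD595).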
# Syk = Syk (Homo sapiens (Human), UniProt P43405); assay: Syk enzyme inhibition (FRET, Z-LYTE); format: biochemical
# In short: as §1
# c-Src, sequence (P12931 whole entry, looked up): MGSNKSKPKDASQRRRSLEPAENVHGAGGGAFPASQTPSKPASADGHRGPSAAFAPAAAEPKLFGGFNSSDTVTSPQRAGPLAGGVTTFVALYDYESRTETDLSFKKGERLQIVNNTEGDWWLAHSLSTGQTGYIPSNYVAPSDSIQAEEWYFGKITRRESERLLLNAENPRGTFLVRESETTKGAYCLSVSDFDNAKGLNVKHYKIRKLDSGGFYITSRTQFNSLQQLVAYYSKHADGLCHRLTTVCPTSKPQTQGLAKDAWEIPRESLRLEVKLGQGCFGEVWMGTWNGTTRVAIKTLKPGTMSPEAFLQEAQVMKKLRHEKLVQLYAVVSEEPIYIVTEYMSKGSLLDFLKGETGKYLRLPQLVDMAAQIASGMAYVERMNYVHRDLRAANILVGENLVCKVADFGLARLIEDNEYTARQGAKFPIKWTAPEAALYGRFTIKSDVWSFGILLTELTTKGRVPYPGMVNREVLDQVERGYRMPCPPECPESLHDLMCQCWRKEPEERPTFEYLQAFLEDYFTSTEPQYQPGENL
SMILES,IC50 (c-Src),IC50 (p38 MAPKα (MAPK14)),IC50 (GSK 3α),% β-catenin induction ([1]; test compound 1 μg/mL),% β-catenin induction ([1]; test compound 5 μg/mL),% β-catenin induction ([1]; test compound 10 μg/mL),IC50 (Syk)
"COCCOCCOCCOc1cc(Nc2nccc(Oc3ccc(NC(=O)Nc4cc(C(C)(C)C)cc(C(=O)NCCN(C)C)c4OC)c4ccccc34)n2)cc(OC)c1 [Example 46, 5-(tert-Butyl)-N-(2-(dimethylamino)ethyl)-2-methoxy-3-(3-(4-((2-((3-methoxy-5-(2-(2-(2-methoxyethoxy)ethoxy)ethoxyl)phenyl)amino)pyrimidin-4-yl)oxy)naphthalen-1-yl)ureido)-benzamide]",0.015 µM,0.11 µM,0.636 µM,−2%,2%,−29%,0.02 µM
"C#Cc1cc(Nc2nccc(Oc3ccc(NC(=O)Nc4cc(C(C)(C)C)cc(NS(C)(=O)=O)c4OC)c4ccccc34)n2)cc(C(=O)N[C@@H](C)CN2CCOCC2)c1 [Example 57, (S)-3-((4-((4-(3-(5-(tert-butyl)-2-methoxy-3-(methylsulfonamido)phenyl)ureido)-naphthalen-1-yl)oxy)pyrimidin-2-yl)amino)-5-ethynyl-N-(1-morpholinopropan-2-yl)benzamide]",0.048 µM,0.286 µM,1.12 µM,4%,6%,11%,0.706 µM
"COCCOCCOCCOCCOCCOCCOCCOc1cc(Nc2cc(Oc3ccc(NC(=O)Nc4cc(C(C)(C)C)cc(NS(C)(=O)=O)c4OC)c4ccccc34)ccn2)cc(OC)c1 [Example 45, N-(3-(3-(4-((2-((3-(2,5,8,11,14,17,20-Heptaoxadocosan-22-yloxy)-5-methoxyphenyl)-amino)pyridin-4-yl)oxy)naphthalen-1-yl)ureido)-5-(tert-butyl)-2-methoxyphenyl)methanesulfonamide]",0.039 µM,0.145 µM,2.16 µM,−4%,−7%,−14%,0.455 µM
"COCCOCCOCCOc1cc(Nc2cc(Oc3ccc(NC(=O)Nc4cc(C(C)(C)C)cc(C(=O)NC5COC5)c4OC)c4ccccc34)ccn2)cc(OC)c1 [Example 77, 5-(tert-Butyl)-2-methoxy-3-(3-(4-((2-((3-methoxy-5-(2-(2-(2-methoxyethoxy)ethoxy)ethoxy)-phenyl)amino)pyridin-4-yl)oxy)naphthalen-1-yl)ureido)-N-(oxetan-3-yl)benzamide]",0.023 µM,0.216 µM,3.54 µM,−4%,−1%,−1%,0.039 µM
"COCCOCCOCCOc1cc(Nc2nccc(Oc3ccc(NC(=O)Nc4cc(C(C)(C)C)cc(NS(=O)(=O)N5CCOCC5)c4OC)c4ccccc34)n2)cc(OC)c1 [83(b), N-(5-(tert-butyl)-2-methoxy-3-(3-(4-((2-((3-methoxy-5-(2-(2-(2-methoxyethoxy)ethoxy)-ethoxy)phenyl)amino)pyrimidin-4-yl)oxy)naphthalen-1-yl)ureido)phenyl)morpholine-4-sulfonamide]",0.048 µM,0.246 µM,9.15 µM,−6%,−9%,−6%,0.802 µM
"C#Cc1cc(Nc2cc(Oc3ccc(NC(=O)Nc4cc(C(C)(C)C)cc(C(N)=O)c4OC)c4ccccc34)ccn2)cc(C(=O)NCCOCCOCCOC)c1 [Example 53, 3-((4-((4-(3-(5-(tert-Butyl)-3-carbamoyl-2-methoxyphenyl)ureido)naphthalen-1-yl)oxy)pyridin-2-yl)amino)-5-ethynyl-N-(2-(2-(2-methoxyethoxy)ethoxy)ethyl)benzamide]",0.046 µM,0.132 µM,8.78 µM,−1%,1%,2%,1.27 µM
